# Laboratory results published in patent US11484032B2, “Compositions for inhibition of insect sensing” (Vanderbilt University, priority 2011, dated 2022).
# Key:
# Format in all cases: cell-based
# AgOrco+AgOR65 = molecular target: T1, AgOrco+AgOR65 (Anopheles gambiae, UniProt Q7QCC7); assay: Ca2+ imaging, HEK cells expressing AgOrco+AgOR65; details: heteromeric OR channels AgOrco+AgOR65; read-out: EC50
# T1 construct: expressed in transfected cells
# T1 sequence (Q7QCC7 1-478): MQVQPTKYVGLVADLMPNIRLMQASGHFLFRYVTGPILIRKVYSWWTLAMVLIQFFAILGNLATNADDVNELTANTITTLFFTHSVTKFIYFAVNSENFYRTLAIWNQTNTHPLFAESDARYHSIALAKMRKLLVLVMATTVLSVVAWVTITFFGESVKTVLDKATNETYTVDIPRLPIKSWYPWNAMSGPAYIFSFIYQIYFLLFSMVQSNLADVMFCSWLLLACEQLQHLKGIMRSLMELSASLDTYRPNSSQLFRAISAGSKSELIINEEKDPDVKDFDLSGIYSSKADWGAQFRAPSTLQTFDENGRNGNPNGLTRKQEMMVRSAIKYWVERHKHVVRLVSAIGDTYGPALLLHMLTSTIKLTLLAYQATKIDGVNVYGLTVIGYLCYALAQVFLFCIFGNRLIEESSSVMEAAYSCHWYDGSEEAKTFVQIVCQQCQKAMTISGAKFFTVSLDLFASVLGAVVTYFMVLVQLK
# Text: For transient transfections, ORs were cloned into pCl (Promega) and transfected into Flp-In™ T-REx™293 cell lines (Invitrogen) with Fu GENE6 (Roche). For the creation of stable cell lines, a cell culture expression vector capable of expressing Orco in conjunction with a conventional OR, pcDNA5/FRT/TO (Invitrogen) was modified to create two individual expression cassettes each under the control of a separate CMV/Tet02 promoter and a BGH poly-adenylation signal. Cells (as above) were transfected with the modified pcDNA5 plasmid along with POG44 (a Flp recombinase expression plasmid) to facilitate site-specific recombination. Stable cell lines were selected using Hygromycin B (Invitrogen). Cells were maintained in DMEM (Invitrogen) supplemented with 10% Tetracycline-free FBS (HyClone) and 15 ng/ml Blasticidin. For fluorometric Ca2+ measurements, stable lines expressing ORs of interest were seeded at 20,000 cells/well in black wall, poly-lysine coated 384-well cell culture plates (Greiner) and treated with […] tetracycline (Sigma) overnight to induce OR expression. Cells were dye-loaded with 1.8 uM Fluo-4 AM (Molecular Probes), 2.5 mM Probenecid (Molecular Probes) in assay buffer (20 mM HEPES, IX HBSS) for 45 minutes at 37° C. in 5% CO2 prior to each assay. Ca^2+ mobilization was assayed in an FDSS6000 (Hamamatsu). Baseline readings were taken for 20 s before automated addition of compound previously diluted in DMSO and assay buffer. Ratios were described as Maximum/Minimum response and each response was normalized to the maximum responder.
# For VUAA0, a single methyl from the para position of the aniline ring (compound VUAA0, FIG. 44) in the VUAA1 structure was removed. […] In VUAA0.5, unsaturation was introduced at the para position of the aniline ring (VUAA0.5, FIG. 44). […] In VUAA2, the ethyl group of the aniline ring in VUAA1 was replaced with an isopropyl group (VUAA2, FIG. 44).
# AgORco+AgOR10 = molecular target: T2, AgORco+AgOR10 (Anopheles gambiae, UniProt Q7QCC7); assay: Whole-cell patch clamp, HEK293 cells expressing AgORco+AgOR10
# T2 construct: expressed in transfected cells
# T2 sequence (Q7QCC7 1-478): T1 sequence (Q7QCC7 1-478)
# Protocol: Currents from OR-expressing HEK293 cells were amplified with an Axopatch 200b Amplifier (Axon Instruments) and digitized through a Digidata 1322A (Axon Instruments). Electrophysiological data was recorded and analyzed using pCLAMP 10 (Axon Instruments). Electrodes were fabricated from quartz tubing (Sutter Instruments) and pulled to 4-6 MiΩ for whole cell recording. Electrodes were filled with internal solution (120 mM KCl, 30 mM D-glucose, 10 mM HEPES, 2 mM MgCl2, 1.1 mM EGTA, and 0.1 CaCl2) (pH 7.35, 280 mOsm). External (bath) solution contained 130 mM NaCl, 34 mM D-glucose, 10 mM HEPES, 1.5 mM CaCl2), 1.3 mM KH2PO4, and 0.5 MgSO4 (pH 7.35, 300 mOsm). Compounds were diluted in external solution and locally perfused to the recording cell using Perfusion Pencil (Automate Scientific) and controlled by a ValveLink 8.2 controller (Automate Scientific). Whole cell recordings were sampled at 10 kHz and filtered at 5 kHz. Outside-out patches were obtained using 10-15MΩ electrodes pulled from standard glass capillaries (World Precision Instruments) and fire-polished with an MF-830 micro forge (Narishige). Single channel recordings were sampled at 20 kHz. Recordings were reduced to 1 kHz and low-pass filtered at 500 Hz for display and analysis using QuB (SUNY at Buffalo).
# To test the hypothesis that VUAA1 directly agonized AgORco, whole-cell patch clamp responses were examined in AgORco+AgOR10 expressing cells as well as HEK293 cells stably expressing AgORco alone. […] The VUAA1-dependent currents in AgORco+AgOR10 cells resembled those resulting from application of benzaldehyde, an orthosteric agonist of AgOR10 (FIG. 3C) (Wang, 2010; Carey, 2010). […] To investigate the specificity of VUAA1 agonism, the inventors transiently transfected HEK cells with the AgORco orthologs of Drosophila melanogaster and Heliothis virescens, DmORco and HvOR2 respectively.
# DmORco = molecular target: T3, DmORco (Drosophila melanogaster, UniProt Q9VNB5); assay: Whole-cell patch clamp, HEK cells transiently expressing DmORco; details: DmORco transiently transfected HEK cells
# T3 construct: expressed in transfected cells; host or cells: Flp-In T-REx 293 (HEK), transient, pCI vector, GFP co-transfected as a separate marker
# T3 sequence (Q9VNB5 1-486): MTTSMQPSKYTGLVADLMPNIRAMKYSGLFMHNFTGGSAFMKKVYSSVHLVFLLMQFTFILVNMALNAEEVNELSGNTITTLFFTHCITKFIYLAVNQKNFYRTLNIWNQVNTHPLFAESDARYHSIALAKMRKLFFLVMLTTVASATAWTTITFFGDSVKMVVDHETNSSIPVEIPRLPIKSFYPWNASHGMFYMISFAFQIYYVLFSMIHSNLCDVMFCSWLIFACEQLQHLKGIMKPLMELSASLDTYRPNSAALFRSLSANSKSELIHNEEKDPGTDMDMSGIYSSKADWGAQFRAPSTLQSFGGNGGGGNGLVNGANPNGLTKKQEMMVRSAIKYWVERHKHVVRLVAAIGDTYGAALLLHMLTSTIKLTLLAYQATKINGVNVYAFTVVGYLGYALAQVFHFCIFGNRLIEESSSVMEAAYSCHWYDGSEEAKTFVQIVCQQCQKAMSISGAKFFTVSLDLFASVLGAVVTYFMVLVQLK
# Text: For transient transfections, ORs were cloned into pCl (Promega) and transfected into Flp-In™ T-REx™293 cell lines (Invitrogen) with Fu GENE6 (Roche). For the creation of stable cell lines, a cell culture expression vector capable of expressing Orco in conjunction with a conventional OR, pcDNA5/FRT/TO (Invitrogen) was modified to create two individual expression cassettes each under the control of a separate CMV/Tet02 promoter and a BGH poly-adenylation signal. Cells (as above) were transfected with the modified pcDNA5 plasmid along with POG44 (a Flp recombinase expression plasmid) to facilitate site-specific recombination. Stable cell lines were selected using Hygromycin B (Invitrogen). Cells were maintained in DMEM (Invitrogen) supplemented with 10% Tetracycline-free FBS (HyClone) and 15 ng/ml Blasticidin. […] Baseline readings were taken for 20 s before automated addition of compound previously diluted in DMSO and assay buffer. […]
# Currents from OR-expressing HEK293 cells were amplified with an Axopatch 200b Amplifier (Axon Instruments) and digitized through a Digidata 1322A (Axon Instruments). Electrophysiological data was recorded and analyzed using pCLAMP 10 (Axon Instruments). […]
smiles,measurement,setting,value
"CCc1ccc(NC(=O)CSc2nnc(-c3cccnc3)n2CC)cc1 [VUAA1, 2-((4-ethyl-5-(pyridin-3-yl)-4H-1,2,4-triazol-3-yl)thio)-N-(4-ethylphenyl)acetamide]",EC50,AgOrco+AgOR65,37 µM
same,whole-cell current response,"AgORco+AgOR10; AgORco+AgOR10 cells, holding potential −60 mV",concentration-dependent inward currents
same,reversal potential of agonist-induced current,"AgORco+AgOR10; AgORco+AgOR10 complexes, mean s.e.m.",−4.8±3.0 mV
same,whole-cell current response at −5.0 log M,AgORco+AgOR10; −5.0 log M,inward currents
same,whole-cell current response,DmORco,robust inward currents
